Experimental data from patent publication US9695193B2, “Inhibitors of Plasmodium falciparum equilibrative nucleoside transporter type I as anti-parasitic compounds” (The Trustees of Columbia University in the City of New York, priority 2013, dated 2017).

Each molecule was assayed against T1, PfENT1 (Plasmodium falciparum, UniProt Q8IDM6). Conditions: primary HTS, compounds at 10 μM, 125 μM 5-FUrd.
T1 construct: expressed in transfected cells; host or cells: fui1Δ yeast (Saccharomyces cerevisiae), co-expressing GFP
T1 sequence (Q8IDM6 whole entry): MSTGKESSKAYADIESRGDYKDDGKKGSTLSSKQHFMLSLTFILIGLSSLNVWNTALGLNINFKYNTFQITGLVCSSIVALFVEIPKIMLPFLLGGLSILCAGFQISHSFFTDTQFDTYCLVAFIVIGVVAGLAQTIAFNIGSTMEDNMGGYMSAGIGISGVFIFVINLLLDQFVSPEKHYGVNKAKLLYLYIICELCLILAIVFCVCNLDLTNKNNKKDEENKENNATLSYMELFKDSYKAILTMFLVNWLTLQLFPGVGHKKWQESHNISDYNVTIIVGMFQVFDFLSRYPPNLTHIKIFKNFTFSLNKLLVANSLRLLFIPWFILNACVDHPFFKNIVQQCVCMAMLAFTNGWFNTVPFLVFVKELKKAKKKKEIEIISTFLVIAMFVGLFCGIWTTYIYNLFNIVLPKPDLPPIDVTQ
Type: cell-based
Method: A yeast-based high throughput screening (HTS) assay was used to identify compounds that inhibit PfENT1. The compounds described in this application were identified by screening four commercially available, chemical compound libraries obtained from Dr. Donald Landry's laboratory (Department of Medicine, Columbia University). These libraries contain approximately 80,000 unique chemical entities.
In the primary screen the compounds were tested at a concentration of 10 μM. Hits were identified by the growth of fui1Δ yeast expressing PfENT1 and Green Fluorescent Protein (GFP) in the presence of the cytotoxic nucleoside 5-fluorouridine (5-FUrd). 5-FUrd is transported by PfENT1. PfENT1 expressing fui1Δ yeast will only grow in the presence of 125 μM 5-FUrd if a PfENT1 inhibitor blocks the uptake of 5-FUrd into the yeast. Significant yeast growth in the HTS in 384 well plates was determined by two criteria: 1) turbidity as determined by the optical density at 620 nm (OD620) and 2) GFP fluorescence intensity. […] Hits had to be positive by both criteria.
`O=C(Nc1cccc(NC(=O)c2ccco2)c1)c1cccc(Br)c1` [compound 76, N-{3-[(3-bromobenzoyl)amino]phenyl}-2-furamide] was tested, and the “Avg Normalized % maximal activity” value was 6.23%. `CCN(CC)C(=O)c1ccc(-c2ccc(N3CCOCC3)c3ccccc23)nn1` [compound 57] was tested, and the “Avg Normalized % maximal activity” value was 7.64%. `Cc1ccc(C(=O)Nc2ccc(C(=O)N3CCCCC3)cc2)cc1` [compound 86, 4-methyl-N-[4-(1-piperidinylcarbonyl)phenyl]benzamide] was tested, and the “Avg Normalized % maximal activity” value was 5.63%. For `Cc1cc(-c2nc3ncccc3o2)ccc1NC(=O)c1ccco1` [compound 41, N-(2-methyl-4-[1,3]oxazolo[4,5-b]pyridin-2-ylphenyl)-2-furamide], the “Avg Normalized % maximal activity” value was 10.28%. For `COc1ccc(/C=C/c2nc(C#N)c(N3CCCCC3)o2)cc1OC` [compound 128, 2-[2-(3,4-dimethoxyphenyl)vinyl]-5-(1-piperidinyl)-1,3-oxazole-4-carbonitrile], the “Avg Normalized % maximal activity” value was 3.74%. `CC(C)(C)c1nnc(NC(=O)c2cccc(Cl)c2)s1` [compound 68] was tested, and the “Avg Normalized % maximal activity” value was 6.79%. For `O=C(Nc1cccc(-c2nc3ncccc3o2)c1)c1ccc2c(c1)OCCO2` [compound 145, N-(3-[1,3]oxazolo[4,5-b]pyridin-2-ylphenyl)-2,3-dihydro-1,4-benzodioxine-6-carboxamide], the “Avg Normalized % maximal activity” value was 3.02%. For `Cc1ccc2c(Cl)c(C(=O)Nc3cccnc3)sc2c1` [compound 60, 3-chloro-6-methyl-N-3-pyridinyl-1-benzothiophene-2-carboxamide], the “Avg Normalized % maximal activity” value was 7.53%. With `O=C(Nc1cccc(NC(=O)c2cccs2)c1)c1cc2ccccc2o1` [compound 116, N-{3-[(2-thienylcarbonyl)amino]phenyl)-1-benzofuran-2-carboxamide] the “Avg Normalized % maximal activity” value was 4.34%. With `CCOc1ccc(-c2noc(CCCC(=O)N3CCCCC3)n2)cc1OC` [compound 25, 1-{4-[3-(4-ethoxy-3-methoxyphenyl)-1,2,4-oxadiazol-5-yl]butanoyl} piperidine] the “Avg Normalized % maximal activity” value was 15.69%. `CCCCC(=O)Nc1ccc(NC(=O)c2cccs2)cc1OC` [compound 156, N-[3-methoxy-4-(pentanoylamino)phenyl]-2-thiophenecarboxamide] was tested, and the “Avg Normalized % maximal activity” value was 2.17%. For `CCOCc1nnc(NC(=O)c2ccc(OC)cc2)s1` [compound 47], the “Avg Normalized % maximal activity” value was 8.66%. `COc1ccc(NC(=O)C2(c3ccccc3)CCCC2)cc1` [compound 126, N-(4-methoxyphenyl)-1-phenylcyclopentane-carboxamide] was tested, and the “Avg Normalized % maximal activity” value was 3.87%. `O=C(c1cc2nc3c(c(C(F)(F)F)n2n1)CCc1ccccc1-3)N1CCCC1` [compound 170, 10-(1-pyrrolidinyl-carbonyl)-7-(trifluoromethyl)-5,6-dihydrobenzo[h] pyrazolo[5,1-b] quinazoline] was tested, and the “Avg Normalized % maximal activity” value was 1.74%. For `C[N+]1(C)C2CC(OC(=O)[C@H](CO)c3ccccc3)CC1C1OC12` (some centres unmarked) [compound 135], the “Avg Normalized % maximal activity” value was 3.47%. With `CCN(CC)C(=O)COc1ccc2c(c1)oc(=O)c1cc(OC)ccc12` [compound 17, N,N-diethyl-2-[(8-methoxy-6-oxo-6H-benzo [c]chromen-3-yl)oxy]acetamide] the “Avg Normalized % maximal activity” value was 22.15%. `COc1c(C)cccc1C(=O)Nc1cc(-c2nc3ncccc3o2)ccc1C` [compound 122, 2-methoxy-3-methyl-N-(2-methyl-5-[1,3]oxazolo[4,5-b]pyridin-2-ylphenyl)benzamide] was tested, and the “Avg Normalized % maximal activity” value was 4.13%. For `Cc1cc(-c2ccccc2)nc(SCc2nc3ccccc3c(=O)[nH]2)n1` [compound 141, 2-{[(4-methyl-6-phenyl-2-pyrimidinyl)thio]methyl}-4(3H)-quinazolinone], the “Avg Normalized % maximal activity” value was 3.21%. In the case of `COC(=O)c1ccccc1NC(=O)c1ccc(NC(=O)C2CCCO2)cc1` (centres unmarked) [compound 99, methyl 2-({4-[(tetrahydro-2-furanylcarbonyl)amino]benzoyl}amino)benzoate], the “Avg Normalized % maximal activity” value is reported as 4.83%. `Cc1cc(C)nc(NC(=O)c2cc3c(s2)CCCC3)n1` [compound 139, N-(4,6-dimethyl-2-pyrimidinyl)-4,5,6,7-tetrahydro-1-benzothiophene-2-carboxamide] was tested, and the “Avg Normalized % maximal activity” value was 3.27%. `CCOC(=O)c1cc(NC(=O)c2ccccc2F)ccc1N1CCOCC1` [compound 40, ethyl 5-[(2-fluorobenzoyl)amino]-2-(4-morpholinyl)benzoate] was tested, and the “Avg Normalized % maximal activity” value was 10.29%. With `COc1ccc(-c2nnc(OC)c3ccccc23)cc1` [compound 29, 1-methoxy-4-(4-methoxyphenyl) phthalazine] the “Avg Normalized % maximal activity” value was 13.58%. `Cc1ccnc(NC(=O)c2ccc(NC(=O)c3ccco3)cc2)c1` [compound 14, N-(4-{[(4-methyl-2-pyridinyl)amino]carbonyl}phenyl)-2-furamide] was tested, and the “Avg Normalized % maximal activity” value was 24.47%. For `CCOC(=O)c1cc(NC(=O)c2ccco2)ccc1N1CCOCC1` [compound 51, ethyl 5-(2-furoylamino)-2-morpholin-4-ylbenzoate], the “Avg Normalized % maximal activity” value was 8.11%. For `CC(=O)Nc1ccc2nc(SCC(=O)NC3CCCCC3)sc2c1` [compound 160], the “Avg Normalized % maximal activity” value was 2.09%. With `O=C(Nc1cccnc1)c1cc2cc(C3CC3)cc(C(F)(F)F)n2n1` [compound 100] the “Avg Normalized % maximal activity” value was 4.83%. For `O=C(CSc1nnc2ccc3ccccc3n12)Nc1ccccc1F` [compound 56, N-(2-fluorophenyl)-2-([1,2,4]triazolo[4,3-a]quinolin-1-ylthio)acetamide], the “Avg Normalized % maximal activity” value was 7.69%. For `Cc1ccccc1C(=O)Nc1ccc2c(C)cc(=O)oc2c1` [compound 28], the “Avg Normalized % maximal activity” value was 13.98%. For `Cc1cccn2c(=O)c3cc(C(=O)NC4CCCC4)sc3nc12` [compound 55, N-cyclopentyl-9-methyl-4-oxo-4H-pyrido[1,2-a]thieno[2,3-d] pyrimidine-2-carboxamide], the “Avg Normalized % maximal activity” value was 7.75%. For `Fc1ccc(C2CC(c3ccco3)n3ncnc3N2)cc1` (centres unmarked) [compound 23, 5-(4-fluorophenyl)-7-(2-furyl)-4,5,6,7-tetrahydro[1,2,4] triazolo[1,5-a]pyrimidine], the “Avg Normalized % maximal activity” value was 16.77%. `CC(=O)Nc1ccc(NC(=O)CSc2nc3ccccc3s2)cc1` [compound 168, N-[4-(acetylamino)phenyl]-2-(1,3-benzothiazol-2-ylthio)acetamide] was tested, and the “Avg Normalized % maximal activity” value was 1.93%. For `CNC(=O)c1nc(-c2ccc(Cl)cc2)no1` [compound 97, 3-(4-chlorophenyl)-N-methyl-1,2,4-oxadiazole-5-carboxamide], the “Avg Normalized % maximal activity” value was 4.86%. For `CN1CCN(S(=O)(=O)c2ccc(C(=O)Nc3ccccc3)cc2)CC1` [compound 155, 4-[(4-methyl-1-piperazinyl)sulfonyl]-N-phenylbenzamide], the “Avg Normalized % maximal activity” value was 2.20%. With `O=C(Nc1ccc(-c2nnc(-c3ccccc3)o2)cc1)C1CCCO1` (centres unmarked) [compound 42, N-[4-(5-phenyl-1,3,4-oxadiazol-2-yl)phenyl]tetrahydro-2-furancarboxamide] the “Avg Normalized % maximal activity” value was 10.16%. In the case of `COc1ccc(C2CC(c3ccccc3C)n3nc(N)nc3N2)cc1` (centres unmarked) [compound 133, 5-(4-methoxyphenyl)-7-(2-methylphenyl)-4,5,6,7-tetrahydro[1,2,4] triazolo[1,5-a]pyrimidin-2-amine], the “Avg Normalized % maximal activity” value is reported as 3.57%.
